In publication PMC10056348, “Photocaged Histone Deacetylase Inhibitors as Prodrugs in Targeted Cancer Therapy” (Pharmaceuticals, 2023):
Like-named read-outs stand apart in the source and are kept apart here.

Columns and labels:
[1] = test system: A2780 cell line; experiment: MTT cell viability assay, A2780; type: cell-based, human
Description: (§1) The amelanotic melanoma cell line MV-3 was obtained from EPO GmbH Berlin-Buch. The human ovarian carcinoma cell line A2780 was obtained from the European Collection of Cell Cultures (ECACC, Salisbury, UK). The cell lines were cultivated in RPMI 1640 medium supplemented with 10% fetal bovine serum and 50 U/mL penicillin and 50 µg/mL streptomycin and incubated at 37 °C under humidified air with 5% CO2 to 80–90% confluency before being used in further assays.
For this, 200-fold dilution series of the compounds of the respective stock solutions in DMSO (10 mM) were prepared in DMSO using clear U-bottom 96-well microplates (Greiner Bio-One, Greiner AG, Kremsmünster, Austria). Predilutions intended for photolysis experiments were irradiated for 10 min in the UV reactor described above. Thereafter, all predilutions were further diluted 1:200 in medium and provided in clear sterile F-bottom 96-well plates (Starlab GmbH, Hamburg, Germany). MV-3 cells were added at a density of 3000 cells/well and A2780 cells at a density of 8000 cells/well. The cells were added directly and without prior attachment. Final volume was 200 µL, and the final DMSO concentration was 0,5%. After 72 h, 40 µL MTT (3-(4,5-dimethylthiazol-2-yl)-2,5-diphenyltetrazolium bromide; BioChemica, Applichem GmbH, Darmstadt, Germany ) solution (5 mg/mL in phosphate-buffered saline) was added to determine cell survival. The formazan dye was dissolved in DMSO (Sigma-Aldrich, Steinheim, Germany) after 1 h, and absorbance was measured at 570 nm and 690 nm using a Multiskan microplate photometer (Thermo Fisher Scientific, Waltham, MA, USA). Concentration-effect curves were generated using the four-parameter logistic equation (GraphPad Prism 9.0, San Diego, CA, USA), and mean IC50 values were determined by nonlinear regression based on at least three distinct experiments in duplicates.

[2] = target: T1, human recombinant HDAC1 (Homo sapiens, UniProt Q13547); experiment: Fluorogenic HDAC enzyme inhibition assay (ZMAL substrate), HDAC1; type: biochemical
T1 construct: purchased BPS Bioscience Inc. 50051
Description: First, predilutions (100-fold final assay concentration) of test compounds or reference inhibitors were prepared. To this end, 3-fold serial dilutions of the respective DMSO stock solutions were prepared in DMSO using clear V-bottom 96-well microplates (Greiner Bio-One, Greiner AG, Kremsmünster, Austria). Predilutions designated for photolysis were irradiated for 10 min using the UV reactor described above. […] Next, 5.0 µL of these serial dilutions in assay buffer were transferred into 96-well microplates (OptiPlate-96 Black, PerkinElmer, Waltham, MA, USA). […] Fluorescence (excitation: 355 nm, emission: 460 nm) was measured using a FLUOstar OPTIMA microplate reader (BMG LABTECH GmbH, Ortenberg, Germany). IC50 values were determined by generating normalized dose–response curves using the built-in “log(inhibitor) vs. response (three parameters)” equation provided by GraphPad Prism (GraphPad Prism 9.0, San Diego, CA, USA). All compounds were tested in duplicates; reported mean IC50 values, including standard deviation, were calculated from at least two independent experiments.

[3] = test system: cellular HDAC activity in MV-3 cells; experiment: HDAC whole-cell assay; type: cell-based; conditions: for IC50: read-out: IC50 whole-cell HDAC inhibition
Description: as §1
The HDAC whole-cell assay is based on the assay established by Ciossek et al. and Bonfils et al., with minor changes. Melanoma cells MV-3 were seeded in concentration of 15 × 10^3 cells/well (total volume of 81 µL) in 96-well cell-culture microplates (Catalog# 655086, Greiner Bio-One, Frickenhausen, Germany ) and cultured for 24 h. Aliquots of the DMSO stock solutions (10 mM) designated for photolysis were irradiated for 10 min with the UV reactor (see Section 4.3). The stock solutions processed with or without irradiation were used to perform a 4-fold serial dilution in PBS. Next, the cells were treated with 9 µL of the serial dilution for 18 h. For the analysis of the remaining HDAC activity, 10 µL of substrate solution, containing 3 mM Boc-Lys(ε-Ac)-AMC (Catalog# 233691-67-3, BLD pharmatech GmbH, Kaiserslautern, Germany) and 0.5% IGEPAL CA-630 (Catalog# J61055, Alfa Aesar, Thermo Fisher Scientific, Heysham, United Kingdom), was added and incubated for 3 h under cell culture conditions. The reaction was stopped with 100 µL of stop solution (50 mM Tris-HCl, 137 mM NaCl, 2.7 mM KCl, 1 mM MgCl2, 1% IGEPAL CA-630, 10 µM vorinostat, 2.0 mg/mL trypsin) and developed for 1.5 h under cell culture conditions. The fluorescence signal was measured using a Spark multimode microplate reader (Tecan Group AG, Männedorf, Swiss) at excitation wavelength of λ = 355 nm and emission wavelength of λ = 460 nm. Concentration-effect curves were generated using the four-parameter logistic equation (GraphPad Prism 9.0, San Diego, CA, USA), and mean IC50 values were determined by nonlinear regression based on at least three independent experiments in duplicates.

[4] = test system: A2780 cells; experiment: Annexin V/PI apoptosis assay (flow cytometry); type: cell-based, human; conditions: A2780, 0.5 µM, 48 or 72 h
Description: A2780 cells (4 × 10^4 cells/mL) were seeded in 6-well plates (Starlab GmbH, Hamburg, Germany) and allowed to attach. First, dilutions (500 µM) in DMSO were prepared from the respective stock solutions in DMSO (10 mM). Predilutions for photolysis experiments were irradiated in clear U-bottom 96-well microplates (Greiner Bio-One, Greiner AG, Kremsmünster, Austria) for 10 min in the UV reactor described above. Subsequently, vehicle control (DMSO) or compounds, at a concentration of 0.5 µM, were added to the cells and incubated for 48 h and 72 h, respectively. The final volume was 3 mL, and the final DMSO concentration was 0.1%. Staining was performed in triplicate in two separate experiments using annexin V and propidium iodide and analyzed by flow cytometry (Guava® easyCyte^TM, Luminex, Austin, TX, USA), according to the manufacturer’s protocol (BioLegend, San Diego, CA, USA).
Results were expressed as mean with standard deviation (SD). Statistical analysis was performed using GraphPad Prism (GraphPad Software, San Diego, CA, USA). Normality of the data was analyzed using the Shapiro–Wilk’s test. Statistical significance was assessed using one-way analysis of variance (ANOVA) with Tukey’s multiple comparison test. Differences were considered statistically significant at * p < 0.05, ** p < 0.01, *** p < 0.001.

T1 sequence (Q13547 whole entry): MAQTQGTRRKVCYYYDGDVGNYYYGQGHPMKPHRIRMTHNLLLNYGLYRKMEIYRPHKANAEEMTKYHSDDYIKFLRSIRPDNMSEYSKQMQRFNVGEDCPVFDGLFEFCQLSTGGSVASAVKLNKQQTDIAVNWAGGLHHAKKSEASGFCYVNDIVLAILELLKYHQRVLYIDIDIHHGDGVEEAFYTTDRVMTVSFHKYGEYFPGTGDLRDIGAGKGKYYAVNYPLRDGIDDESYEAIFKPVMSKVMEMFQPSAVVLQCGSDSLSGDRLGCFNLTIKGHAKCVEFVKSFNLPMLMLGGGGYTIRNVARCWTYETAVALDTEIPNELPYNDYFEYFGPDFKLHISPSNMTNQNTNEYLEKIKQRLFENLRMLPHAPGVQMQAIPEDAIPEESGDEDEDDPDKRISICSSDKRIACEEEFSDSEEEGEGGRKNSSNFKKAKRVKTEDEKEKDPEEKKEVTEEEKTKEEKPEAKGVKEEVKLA

Row | IC50 ([1]; Homo sapiens, A2780, light or radiation study, MTT, 72 h, without UV irradiation) | IC50 ([2]; without UV irradiation) | IC50 ([3]; 18 h, without UV irradiation) | IC50 ([3]; MV-3, light or radiation study, 18 h, without UV irradiation) | IC50 ([1]; Homo sapiens, A2780, light or radiation study, MTT, 72 h, after UV irradiation (365 nm, 10 min)) | IC50 ([2]; after UV irradiation (365 nm, 10 min)) | increase of HDAC1 inhibition upon irradiation with UV light ([2]; irradiated vs non-irradiated) | IC50 ([3]; light or radiation study, 18 h, after UV irradiation (365 nm, 10 min)) | Structure (SMILES) | early and late apoptosis vs DMSO control ([4]; without UV irradiation) | inhibition at 25 µM ([1]; Homo sapiens, A2780, light or radiation study, at 25 µM, without UV irradiation) | IC50 (A2780) ([1]; MTT, 72 h, without UV irradiation) | IC50 whole-cell HDAC inhibition ([3]; 18 h, without UV irradiation) | inhibition at 25 µM ([3]; light or radiation study, at 25 µM, without UV irradiation) | early and late apoptosis vs DMSO control ([4]; after light activation)
1 | 249 ± 84.7 nM | 12.7 ± 0.7 nM | 90.6 ± 5.74 nM | 91 nM |  |  |  |  | CN(C)c1ccc(C(=O)N(CC(=O)NCc2ccccc2)Cc2ccc(C(=O)NO)cc2)cc1 [I, N-[2-(benzylamino)-2-oxoethyl]-4-(dimethylamino)-N-[4-(hydroxycarbamoyl)-benzyl]-benzamide] | significant increase in early and late apoptotic cells |  |  |  |  | 
2 |  | 824 ± 32.2 nM |  |  | 428 ± 62.5 nM | 6.8 ± 1.2 nM | 121 fold | 73 nM | COc1cc(CONC(=O)c2ccc(CN(CC(=O)NCc3ccccc3)C(=O)c3ccc(N(C)C)cc3)cc2)c([N+](=O)[O-])cc1OC [pc-I, N-[2-(Benzylamino)-2-oxoethyl]-N-(4-{[(4,5-dimethoxy-2-nitrobenzyl)oxy]carbamoyl}benzyl)-4-(dimethylamino)benzamide] | no significant increase in early and late apoptosis | < 25% | n.e. ^b (n.e— no effect: <25% inhibition at 25 µM) | n.e. (no effect: <25% inhibition at 25 µM) | < 25% | increased apoptosis levels which were comparable to compound I
